Measurements reported in patent publication US11453683B1, “KRas G12D inhibitors” (Mirati Therapeutics, Inc., priority 2019, dated 2022).

Test system: KRas G12D-mediated phosphorylation of ERK
Test: Inhibition of KRas G12D-mediated phosphorylation of ERK in AGS cells
Type: cell-based
Conditions: Homo sapiens; AGS cells expressing G12D, 3 hours, phospho-ERK normalized to GAPDH
Description: Cells were plated in tissue culture treated 96 well plates at a density of 40,000 cells/well and allowed to attach for 12-14 hours. Diluted compounds were then added in a final concentration of 0.5% DMSO. After 3 hours, the medium was removed, 150 μL of 4.0% formaldehyde was added and the plates incubated at room temperature for 20 minutes. The plates were washed with PBS, and permeabilized with 150 μL of ice cold 100% methanol for 10 minutes. Non-specific antibody binding to the plates was blocked using 100 μL Licor blocking buffer (Li-Cor Biotechnology, Lincoln Nebr.) for 1 hour at room temperature.
The amount of phospho-ERK was determined using an antibody specific for the phosphorylated form of ERK and compared to the amount of GAPDH. Primary antibodies used for the detection were added as follows: Phospho-ERK (Cell Signaling cs-9101) diluted 1:500 and GAPDH (Millipore MAB374) diluted 1:5000 in Licor block+0.05% Tween 20. The plates were incubated for 2 hours at room temperature. The plates were washed with PBS+0.05% Tween 20.
Secondary antibodies used to visualize primary antibodies were added as follows: Anti-rabbit-680 diluted 1:1000 and Anti-mouse-800 diluted 1:1000 both in Licor block+0.05% TweeN2O, and were incubated for 1 hour at room temperature. The plates were washed with PBS+0.05% Tween 20. A 100 μL aliquot of PBS was added to each well and the plates were read on a Li-Cor Odyssey CLX plate reader.
The phospho-ERK (Thr202/Tyr204 signal was normalized to the GAPDH signal for each well and percent of DMSO control values were calculated. IC50 values were generated using a 4-parameter fit of the dose response curve

| Compound | IC50 [µM] |
| --- | --- |
| NCC#Cc1cccc2cccc(-c3ncc4c(N5C[C@H]6CC[C@@H](C5)N6)nc(OCC56CCCN5CCC6)nc4c3F)c12 [Example 241, 3-(8-(4-((1R,5S)-3,8-diazabicyclo[3.2.1]octan-3-yl)-8-fluoro-2-((tetrahydro-1H-pyrrolizin-7a(5H)-yl)methoxy)pyrido[4,3-d]pyrimidin-7-yl)naphthalen-1-yl)prop-2-yn-1-amine] | > 16.7 |
| C#CCc1ccc(O)cc1-c1ncc2c(N3C[C@H]4CC[C@@H](C3)N4)nc(OCC34CCCN3CCC4)nc2c1F [Example 279, 3-(4-((1R,5S)-3,8-diazabicyclo[3.2.1]octan-3-yl)-8-fluoro-2-((hexahydro-1H-pyrrolizin-7a-yl)methoxy)pyrido[4,3-d]pyrimidin-7-yl)-4-(prop-2-yn-1-yl)phenol] | 7.4 |
| COC[C@H]1CC[C@@]2(COc3nc(N4CC5CCC(C4)N5)c4cnc(-c5cc(O)cc6ccccc56)c(F)c4n3)CCCN12 (stereo in doubt) [Example 389, 4-(4-((1R,5S)-3,8-diazabicyclo[3.2.1]octan-3-yl)-8-fluoro-2-((3-(methoxymethyl)tetrahydro-1H-pyrrolizin-7a(5H)-yl)methoxy)pyrido[4,3-d]pyrimidin-7-yl)naphthalen-2-ol] | 0.781 |
| C#Cc1c(F)ccc2cc(O)cc(-c3ncc4c(N5C[C@H]6CC[C@@H](C5)N6)nc(OCC56CCCN5CCC6)nc4c3F)c12 [Example 232, 4-(4-((1R,5S)-3,8-diazabicyclo[3.2.1]octan-3-yl)-8-fluoro-2-((tetrahydro-1H-pyrrolizin-7a(5H)-yl)methoxy)pyrido[4,3-d]pyrimidin-7-yl)-5-ethynyl-6-fluoronaphthalen-2-ol] | 0.0152 |
| CC1CCc2cccc(-c3ncc4c(N5CC6CCC(C5)N6)nc(OC[C@@H]5CCCN5C)nc4c3F)c21 (stereo partly drawn) [Example 174, 4-((1R,5S)-3,8-diazabicyclo[3.2.1]octan-3-yl)-8-fluoro-7-(3-methyl-2,3-dihydro-1H-inden-4-yl)-2-(((S)-1-methylpyrrolidin-2-yl)methoxy)pyrido[4,3-d]pyrimidine] | 12.8 |
| CNC(=O)O[C@@H]1CN2CCC[C@]2(COc2nc(N3C[C@H]4CC[C@@H](C3)N4)c3cnc(-c4cccc5cccc(Cl)c45)c(F)c3n2)C1 [Example 435, (2S,7aR)-7a-(((4-((1R,5S)-3,8-diazabicyclo[3.2.1]octan-3-yl)-7-(8-chloronaphthalen-1-yl)-8-fluoropyrido[4,3-d]pyrimidin-2-yl)oxy)methyl)hexahydro-1H-pyrrolizin-2-yl methylcarbamate] | 1.82 |
| Fc1c(-c2cccc3c2CCC3)ncc2c(N3CC4CCC(C3)N4)nc(OC[C@@]34CCCN3C[C@H](F)C4)nc12 [Example 428] | 6.96 |
| CC1CCCc2cccc(-c3ncc4c(N5CC6CCC(C5)N6)nc(OC[C@@H]5CCCN5C)nc4c3F)c21 (stereo partly drawn) [Example 133, 4-((1R,5S)-3,8-diazabicyclo[3.2.1]octan-3-yl)-8-fluoro-7-(8-methyl-5,6,7,8-tetrahydronaphthalen-1-yl)-2-(((S)-1-methylpyrrolidin-2-yl)methoxy)pyrido[4,3-d]pyrimidine] | 2.05 |
| [O-][S+]1CCC(Oc2nc(N3C[C@H]4CC[C@@H](C3)N4)c3cnc(-c4cc(O)cc5ccccc45)c(F)c3n2)CC1 (stereo partly drawn) [Example 82, 4-((4-((1R,5S)-3,8-diazabicyclo[3.2.1]octan-3-yl)-8-fluoro-7-(3-hydroxynaphthalen-1-yl)pyrido[4,3-d]pyrimidin-2-yl)oxy)tetrahydro-2H-thiopyran 1-oxide] | > 16.7 |
| CC1(C)CN2CCCC2(COc2nc(N3CC4CCC(C3)N4)c3cnc(-c4cccc5cccc(Cl)c45)c(F)c3n2)C1 [Example 228, 4-((1R,5S)-3,8-diazabicyclo[3.2.1]octan-3-yl)-7-(8-chloronaphthalen-1-yl)-2-((2,2-dimethyltetrahydro-1H-pyrrolizin-7a(5H)-yl)methoxy)-8-fluoropyrido[4,3-d]pyrimidine bis-2,2,2-trifluoroacetate] | 13.7 |
